Results taken from patent US12239627B2, “Method of treating conditions related to the PGI2 receptor” (Arena Pharmaceuticals, Inc., priority 2014, dated 2025).

Test: Phase 1 multiple ascending dose, dose titration study with healthy subjects (adverse events, tolerated dose)
Type: in vivo, human
Conditions: for Adverse Events (no. of subjects) leading to Decrease of Dose: Abdominal pain / Adverse Events (no. of subjects) leading to Decrease of Dose: Arthralgia / Adverse Events (no. of subjects) leading to Decrease of Dose: Chest discomfort / Adverse Events (no. of subjects) leading to Decrease of Dose: Chest pain / Adverse Events (no. of subjects) leading to Decrease of Dose: Diarrhoea / Adverse Events (no. of subjects) leading to Decrease of Dose: Dizziness / Adverse Events (no. of subjects) leading to Decrease of Dose: Headache / Adverse Events (no. of subjects) leading to Decrease of Dose: Jaw pain / Adverse Events (no. of subjects) leading to Decrease of Dose: Myalgia / Adverse Events (no. of subjects) leading to Decrease of Dose: Nausea / Adverse Events (no. of subjects) leading to Decrease of Dose: Palpitations / Adverse Events (no. of subjects) leading to Decrease of Dose: Priapism / Adverse Events (no. of subjects) leading to Decrease of Dose: Vomiting: Cohort 3, twice daily
Protocol: This study was a phase 1, randomized, double-blind, placebo-controlled, multiple-dose, dose titration study. A titration interval of 6 days was employed, with each dose being administered for at least 5 days. One goal was to determine the effect of dose titration on adverse effects.
In each of two subject cohorts, Cohort 1 and Cohort 2, subjects were treated at each dose level for duration of 5 days with exception of the last dose level which included 7 days of treatment.
The protocol was amended to provide for an additional cohort, Cohort 3, in order to evaluate a different dose escalation regimen, as disclosed below.
Cohorts 1 and 2: Two groups of 15 subjects were enrolled and randomized to receive placebo (5 subjects per Cohort) or a starting dose of 0.05 mg Compound 1 (10 subjects per Cohort) on Day I. Once daily (q.d.) dosing continued through 5 days. If tolerated, the next dose escalation (placebo or 0.1 mg q.d. Compound 1) occurred on Day 6 and this dose was administered daily through Day 10.
Subsequent dose escalations were to occur in the same manner every 6th day for up to 3 additional dose escalations if tolerated (placebo or 0.2, 0.3, and 0.4 mg Compound 1) with the final dose maintained for a duration of 7 days. The dose could be decreased (“de-escalated”) or increased (“re-escalated”) based on assessment of safety and tolerability.
Cohort 3: One group of 25 subjects (S placebo and 20 active) were enrolled and randomized to receive a starting dose of 0.01 mg Compound 1 twice daily or placebo on Day 1. Twice daily dosing continued through 5 days. If tolerated, the next dose escalation (placebo or Compound 1 0.02 mg twice daily) occurred on Day 6 and this dose was administered daily through Day 10. Subsequent dose escalations were to occur in the same manner every 6th day for up to 4 additional dose escalations if tolerated (placebo or 0.03, 0.04. 0.05, and 0.07 mg twice daily Compound 1). The dose could be decreased (“de-escalated”) or increased (“re-escalated”) based on assessment of safety and tolerability. The doses tested in this cohort were 0.01, 0.02, 0.03, 0.04, 0.05, and 0.07 mg administered twice daily for a total daily dose of 0.02, 0.04, 0.06, 0.08, 0.1, and 0.14 mg, respectively.
Compound 1 capsules were provided as 0.01 mg (all Cohorts) and 0.1 mg (Cohorts 1 and 2 only) strengths.

Structure (SMILES): O=C(O)COC[C@H]1CC[C@H](COC(=O)N(c2ccccc2)c2ccc(Cl)cc2)CC1 [Compound 1, 2-(((1r,4r)-4-(((4-chlorophenyl)(phenyl)carbamoyloxy)methyl)cyclohexyl)methoxy)acetic acid]
- Subjects who received 0.04 mg as highest dose for at least 3 days (Cohort 3): 0.04 mg-20 subjects
- Subjects who received 0.06 mg as highest dose for at least 3 days (Cohort 3): 0.06 mg-19 subjects
- Subjects who received 0.08 mg as highest dose for at least 3 days (Cohort 3): 0.08 mg-11 subjects
- Subjects who received 0.10 mg as highest dose for at least 3 days (Cohort 3): 0.10 mg-8 subjects
- Subjects who received 0.14 mg as highest dose for at least 3 days (Cohort 3): 0.14 mg-3 subjects
- Subjects with Final Compound 1 Total Daily Dose of 0.04 mg (Cohort 3): 0.04 mg-4 subjects
- Subjects with Final Compound 1 Total Daily Dose of 0.06 mg (Cohort 3): 0.06 mg-6 subjects
- Subjects with Final Compound 1 Total Daily Dose of 0.08 mg (Cohort 3): 0.08 mg-2 subjects
- Subjects with Final Compound 1 Total Daily Dose of 0.10 mg (Cohort 3): 0.10 mg-6 subjects
- Subjects with Final Compound 1 Total Daily Dose of 0.14 mg (Cohort 3): 0.14 mg-2 subjects
- Adverse Events (no. of subjects) leading to Decrease of Dose: Abdominal pain (0.01 mg (N = 20)): 0 subjects
- Adverse Events (no. of subjects) leading to Decrease of Dose: Arthralgia (0.01 mg (N = 20)): 0 subjects
- Adverse Events (no. of subjects) leading to Decrease of Dose: Chest discomfort (0.01 mg (N = 20)): 0 subjects
- Adverse Events (no. of subjects) leading to Decrease of Dose: Chest pain (0.01 mg (N = 20)): 0 subjects
- Adverse Events (no. of subjects) leading to Decrease of Dose: Diarrhoea (0.01 mg (N = 20)): 0 subjects
- Adverse Events (no. of subjects) leading to Decrease of Dose: Dizziness (0.01 mg (N = 20)): 0 subjects
- Adverse Events (no. of subjects) leading to Decrease of Dose: Headache (0.01 mg (N = 20)): 1 subjects
- Adverse Events (no. of subjects) leading to Decrease of Dose: Jaw pain (0.01 mg (N = 20)): 0 subjects
- Adverse Events (no. of subjects) leading to Decrease of Dose: Myalgia (0.01 mg (N = 20)): 1 subjects
- Adverse Events (no. of subjects) leading to Decrease of Dose: Nausea (0.01 mg (N = 20)): 0 subjects
- Adverse Events (no. of subjects) leading to Decrease of Dose: Palpitations (0.01 mg (N = 20)): 0 subjects
- Adverse Events (no. of subjects) leading to Decrease of Dose: Priapism (0.01 mg (N = 20)): 0 subjects
- Adverse Events (no. of subjects) leading to Decrease of Dose: Vomiting (0.01 mg (N = 20)): 0 subjects
- Adverse Events (no. of subjects) leading to Decrease of Dose: Abdominal pain (0.02 mg (N = 20)): 0 subjects
- Adverse Events (no. of subjects) leading to Decrease of Dose: Arthralgia (0.02 mg (N = 20)): 1 subjects
- Adverse Events (no. of subjects) leading to Decrease of Dose: Chest discomfort (0.02 mg (N = 20)): 0 subjects
- Adverse Events (no. of subjects) leading to Decrease of Dose: Chest pain (0.02 mg (N = 20)): 1 subjects
- Adverse Events (no. of subjects) leading to Decrease of Dose: Diarrhoea (0.02 mg (N = 20)): 1 subjects
- Adverse Events (no. of subjects) leading to Decrease of Dose: Dizziness (0.02 mg (N = 20)): 0 subjects
- Adverse Events (no. of subjects) leading to Decrease of Dose: Headache (0.02 mg (N = 20)): 6 subjects
- Adverse Events (no. of subjects) leading to Decrease of Dose: Jaw pain (0.02 mg (N = 20)): 0 subjects
- Adverse Events (no. of subjects) leading to Decrease of Dose: Myalgia (0.02 mg (N = 20)): 2 subjects
- Adverse Events (no. of subjects) leading to Decrease of Dose: Nausea (0.02 mg (N = 20)): 3 subjects
- Adverse Events (no. of subjects) leading to Decrease of Dose: Palpitations (0.02 mg (N = 20)): 1 subjects
- Adverse Events (no. of subjects) leading to Decrease of Dose: Priapism (0.02 mg (N = 20)): 0 subjects
- Adverse Events (no. of subjects) leading to Decrease of Dose: Vomiting (0.02 mg (N = 20)): 1 subjects
- Adverse Events (no. of subjects) leading to Decrease of Dose: Abdominal pain (0.03 mg (N = 20)): 1 subjects
- Adverse Events (no. of subjects) leading to Decrease of Dose: Arthralgia (0.03 mg (N = 20)): 0 subjects
- Adverse Events (no. of subjects) leading to Decrease of Dose: Chest discomfort (0.03 mg (N = 20)): 1 subjects
- Adverse Events (no. of subjects) leading to Decrease of Dose: Chest pain (0.03 mg (N = 20)): 0 subjects
- Adverse Events (no. of subjects) leading to Decrease of Dose: Diarrhoea (0.03 mg (N = 20)): 1 subjects
- Adverse Events (no. of subjects) leading to Decrease of Dose: Dizziness (0.03 mg (N = 20)): 0 subjects
- Adverse Events (no. of subjects) leading to Decrease of Dose: Headache (0.03 mg (N = 20)): 1 subjects
- Adverse Events (no. of subjects) leading to Decrease of Dose: Jaw pain (0.03 mg (N = 20)): 0 subjects
- Adverse Events (no. of subjects) leading to Decrease of Dose: Myalgia (0.03 mg (N = 20)): 1 subjects
- Adverse Events (no. of subjects) leading to Decrease of Dose: Nausea (0.03 mg (N = 20)): 1 subjects
- Adverse Events (no. of subjects) leading to Decrease of Dose: Palpitations (0.03 mg (N = 20)): 0 subjects
- Adverse Events (no. of subjects) leading to Decrease of Dose: Priapism (0.03 mg (N = 20)): 1 subjects
- Adverse Events (no. of subjects) leading to Decrease of Dose: Vomiting (0.03 mg (N = 20)): 0 subjects
- Adverse Events (no. of subjects) leading to Decrease of Dose: Abdominal pain (0.04 mg (N = 12)): 0 subjects
- Adverse Events (no. of subjects) leading to Decrease of Dose: Arthralgia (0.04 mg (N = 12)): 0 subjects
- Adverse Events (no. of subjects) leading to Decrease of Dose: Chest discomfort (0.04 mg (N = 12)): 0 subjects
- Adverse Events (no. of subjects) leading to Decrease of Dose: Chest pain (0.04 mg (N = 12)): 0 subjects
- Adverse Events (no. of subjects) leading to Decrease of Dose: Diarrhoea (0.04 mg (N = 12)): 0 subjects
- Adverse Events (no. of subjects) leading to Decrease of Dose: Dizziness (0.04 mg (N = 12)): 2 subjects
- Adverse Events (no. of subjects) leading to Decrease of Dose: Headache (0.04 mg (N = 12)): 1 subjects
- Adverse Events (no. of subjects) leading to Decrease of Dose: Jaw pain (0.04 mg (N = 12)): 0 subjects
- Adverse Events (no. of subjects) leading to Decrease of Dose: Myalgia (0.04 mg (N = 12)): 0 subjects
- Adverse Events (no. of subjects) leading to Decrease of Dose: Nausea (0.04 mg (N = 12)): 0 subjects
- Adverse Events (no. of subjects) leading to Decrease of Dose: Palpitations (0.04 mg (N = 12)): 0 subjects
- Adverse Events (no. of subjects) leading to Decrease of Dose: Priapism (0.04 mg (N = 12)): 0 subjects
- Adverse Events (no. of subjects) leading to Decrease of Dose: Vomiting (0.04 mg (N = 12)): 0 subjects
- Adverse Events (no. of subjects) leading to Decrease of Dose: Abdominal pain (0.05 mg (N = 8)): 1 subjects
- Adverse Events (no. of subjects) leading to Decrease of Dose: Arthralgia (0.05 mg (N = 8)): 0 subjects
- Adverse Events (no. of subjects) leading to Decrease of Dose: Chest discomfort (0.05 mg (N = 8)): 0 subjects
- Adverse Events (no. of subjects) leading to Decrease of Dose: Chest pain (0.05 mg (N = 8)): 0 subjects
- Adverse Events (no. of subjects) leading to Decrease of Dose: Diarrhoea (0.05 mg (N = 8)): 0 subjects
- Adverse Events (no. of subjects) leading to Decrease of Dose: Dizziness (0.05 mg (N = 8)): 1 subjects
- Adverse Events (no. of subjects) leading to Decrease of Dose: Headache (0.05 mg (N = 8)): 0 subjects
- Adverse Events (no. of subjects) leading to Decrease of Dose: Jaw pain (0.05 mg (N = 8)): 0 subjects
- Adverse Events (no. of subjects) leading to Decrease of Dose: Myalgia (0.05 mg (N = 8)): 0 subjects
- Adverse Events (no. of subjects) leading to Decrease of Dose: Nausea (0.05 mg (N = 8)): 0 subjects
- Adverse Events (no. of subjects) leading to Decrease of Dose: Palpitations (0.05 mg (N = 8)): 0 subjects
- Adverse Events (no. of subjects) leading to Decrease of Dose: Priapism (0.05 mg (N = 8)): 0 subjects
- Adverse Events (no. of subjects) leading to Decrease of Dose: Vomiting (0.05 mg (N = 8)): 0 subjects
- Adverse Events (no. of subjects) leading to Decrease of Dose: Abdominal pain (0.07 mg (N = 4)): 0 subjects
- Adverse Events (no. of subjects) leading to Decrease of Dose: Arthralgia (0.07 mg (N = 4)): 1 subjects
- Adverse Events (no. of subjects) leading to Decrease of Dose: Chest discomfort (0.07 mg (N = 4)): 0 subjects
- Adverse Events (no. of subjects) leading to Decrease of Dose: Chest pain (0.07 mg (N = 4)): 0 subjects
- Adverse Events (no. of subjects) leading to Decrease of Dose: Diarrhoea (0.07 mg (N = 4)): 0 subjects
- Adverse Events (no. of subjects) leading to Decrease of Dose: Dizziness (0.07 mg (N = 4)): 0 subjects
- Adverse Events (no. of subjects) leading to Decrease of Dose: Headache (0.07 mg (N = 4)): 1 subjects
- Adverse Events (no. of subjects) leading to Decrease of Dose: Jaw pain (0.07 mg (N = 4)): 1 subjects
- Adverse Events (no. of subjects) leading to Decrease of Dose: Myalgia (0.07 mg (N = 4)): 0 subjects
- Adverse Events (no. of subjects) leading to Decrease of Dose: Nausea (0.07 mg (N = 4)): 1 subjects
- Adverse Events (no. of subjects) leading to Decrease of Dose: Palpitations (0.07 mg (N = 4)): 0 subjects
